Data: ChEMBL document CHEMBL1201862, “PubChem BioAssay data set” (2004)
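Test compounds were applied to cells in 96-well plates for 48 hours at 5 doses. Here, GI50 denotes the concentration required for 50% inhibition of growth.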 Activity calls are given as the source filed them. Rule as the data show it: active = GI50 up to about 1.1 µM and inactive = higher. Residues, ends and D or L forms follow the SMILES beside them.

How the values were obtained:
Assay in all cases: NCI-60 cell line screen, 48 h
SNB-78 = system: SNB-78
DMS-273 = system: DMS-273
DLD-1 = system: DLD-1
DMS-114 = system: DMS-114
HOP-18 = system: HOP-18
XF498 = system: XF498
LXFL 529 = system: LXFL 529
BT-549 = system: BT-549

Q: Which results are given for `N#Cc1c(CC(=O)O)cc(=O)n2c1[nH]c1ccccc12`?
A: GI50 (SNB-78): > 100 µM (inactive); GI50 (DMS-273): > 100 µM (inactive); GI50 (DLD-1): > 100 µM (inactive); GI50 (DMS-114): > 100 µM (inactive)

Q: What does the source list for `NNC(=O)/C(=C/c1ccc(Cl)cc1Cl)NC(=O)c1ccccc1`?
A: GI50 (HOP-18): > 100 µM (inactive); GI50 (SNB-78): > 100 µM (inactive); GI50 (XF498): > 100 µM (inactive); GI50 (DMS-273): > 100 µM (inactive); GI50 (LXFL 529): > 100 µM (inactive); GI50 (DLD-1): > 100 µM (inactive); GI50 (DMS-114): > 100 µM (inactive)

Q: For `CCCCc1ccc(Nc2nc(Cl)c3c(ncn3COCCOC(C)=O)n2)cc1`, which GI50 (BT-549) is on record?
A: 15 µM (inactive)

Q: With `O=c1oc2cc(O)ccc2c(O)c1C(c1ccccc1F)c1c(O)c2ccc(O)cc2oc1=O` as the compound, how does the GI50 (BT-549) read?
A: 11.3 µM (inactive)

Q: With `CCc1ccccc1N1CCN(C(=O)c2cc(OC)c(OC)c(OC)c2)CC1` as the compound, how does the GI50 (BT-549) read?
A: 0.0361 µM (active)

Q: What about the GI50 (SNB-78) of the same compound?
A: 0.262 µM (active)

Q: And the GI50 (XF498)?
A: 0.115 µM (active)

Q: And the GI50 (DMS-273)?
A: 0.0277 µM (active)

Q: What about the GI50 (DLD-1) of the same compound?
A: 0.2 µM (active)

Q: What about the GI50 (DMS-114) of the same compound?
A: 0.0561 µM (active)

Q: `C(=N\OCCc1ccccc1)/c1cccnc1` was tested. Which GI50 (BT-549) did it give?
A: > 100 µM (inactive)

Q: Which GI50 (BT-549) does the source give for `CCN(CC)CCNC(=O)c1cc2cc(NC(=O)c3cc4cc([N+](=O)[O-])ccc4[nH]3)ccc2[nH]1` here?
A: > 60.8 µM (inactive)

Q: For `CS[C@]12[C@@H]3C(=O)N(C)C(=O)[C@@H]3[C@](C)(C(=O)N1C)C(=O)N2c1ccccc1`, which GI50 (BT-549) is on record?
A: > 100 µM (inactive)

Q: For `O=c1n(-c2ccccc2)c(=O)n2n1C1Cc3ccccc3C12` (stereo not drawn), which GI50 (BT-549) is on record?
A: > 100 µM (inactive)

Q: Which GI50 (BT-549) does the source give for `CCOC(=O)C#Cc1ccccc1` here?
A: 11.6 µM (inactive)

Q: Which GI50 (BT-549) does the source give for `Cc1nc2c(=O)n3c4c(cccc4c2o1)CCC3` here?
A: > 100 µM (inactive)

Q: Which GI50 (BT-549) does the source give for `N#C[C@H](C(=O)c1ccccc1F)c1nc2ccccc2[nH]1` here?
A: > 100 µM (inactive)

Q: Which GI50 (BT-549) does the source give for `CCOC(CCNCC(OCC)OCC)OCC` here?
A: > 10 µM (inactive)

Q: Which results are given for `CCCCCN(CCCCC)C(=O)[C@@H](CCC(=O)O)NC(=O)c1cc2ccccc2[nH]1`?
A: GI50 (SNB-78): 59.6 µM (inactive); GI50 (XF498): 26 µM (inactive); GI50 (DMS-273): 32.1 µM (inactive); GI50 (LXFL 529): 41.7 µM (inactive); GI50 (DLD-1): 31.5 µM (inactive); GI50 (DMS-114): 33 µM (inactive)

Q: With `S=C1N=C2C(=N1)n1c3c(c4ccccc41)CCCC23` (stereo not drawn) as the compound, how does the GI50 (BT-549) read?
A: 59.2 µM (inactive)

Q: `CCC(C)C(NC(=O)C1CCCN1)C(=O)NC(C(=O)NCC(=O)NC(CC(N)=O)C(=O)NC(CC(C)C)C(=O)NC(CC(C)C)C(=O)NC(CCCCN)C(N)=O)C(C)C` (stereo not drawn) (H-PIVGNLLK-NH2; configuration not given here) was tested. Which GI50 (BT-549) did it give?
A: > 75 µM (inactive)

Q: With `C(=N/Nc1ccccn1)/c1cccnc1` as the compound, how does the GI50 (BT-549) read?
A: > 100 µM (inactive)

Q: How did the GI50 (BT-549) turn out when `Cc1noc(NS(=O)(=O)c2ccc(NC(=O)c3ccc4nc5ccccc5c(Nc5ccc(S(=O)(=O)Nc6onc(C)c6C)cc5)c4c3)cc2)c1C` was run?
A: 24.8 µM (inactive)

Q: For `Cc1ccc(S(=O)(=O)[N-]C2C(=O)c3ccccc3C(=O)C2[n+]2cccc(C(N)=O)c2)cc1` (stereo not drawn), which GI50 (BT-549) is on record?
A: > 100 µM (inactive)

Q: How did the GI50 (BT-549) turn out when `O=C1/C(=C/c2ccc(Br)s2)NC(=S)N1c1ccccc1` was run?
A: 82.6 µM (inactive)

Q: With `O=C1C2=C(C(=O)c3c(O)ccc(O)c31)[C@@H](O)[C@@H](O)[C@@H](O)C2` as the compound, how does the GI50 (BT-549) read?
A: 1.43 µM (inactive)

Q: For `O=[N+]([O-])c1ccc(C2=NOC(c3ccc(Cl)cc3)N2C23CC4CC(CC(C4)C2)C3)cc1` (stereo not drawn), which GI50 (BT-549) is on record?
A: > 100 µM (inactive)

Q: How did the GI50 (BT-549) turn out when `CCn1c(-c2cc(OC)cc(OC)c2)nc2c1C(=O)c1ccccc1C2=O` was run?
A: > 100 µM (inactive)

Q: `CCC[C@@H](O)C[C@@H]1CCC[C@H](C[C@@H](O)CC)N1C` was tested. Which GI50 (BT-549) did it give?
A: 76.4 µM (inactive)

Q: How did the GI50 (BT-549) turn out when `c1ccc2c(c1)CCc1c-2n(CCN2CCCCC2)c2ccccc12` was run?
A: 17.9 µM (inactive)

Q: With `CC(=O)Nc1[nH]c(=O)[nH]c(=O)c1N(C(C)=O)C(C)=O` as the compound, how does the GI50 (SNB-78) read?
A: > 100 µM (inactive)

Q: What about the GI50 (XF498) of the same compound?
A: > 100 µM (inactive)

Q: What about the GI50 (DMS-273) of the same compound?
A: > 100 µM (inactive)

Q: What about the GI50 (LXFL 529) of the same compound?
A: > 100 µM (inactive)

Q: What about the GI50 (DLD-1) of the same compound?
A: > 100 µM (inactive)

Q: What about the GI50 (DMS-114) of the same compound?
A: > 100 µM (inactive)

Q: Which GI50 (BT-549) does the source give for `C=C1C(=O)OC2CC3(C)CCCC(C)C3=CC12` (stereo not drawn) here?
A: 4.65 µM (inactive)

Q: Which GI50 (BT-549) does the source give for `CC(=O)N1c2ccccc2C23CCN4CC5=CCOC(O)C(C5CC42)C13` (stereo not drawn) here?
A: > 100 µM (inactive)

Q: How did the GI50 (HOP-18) turn out when `O=C1c2ccccc2C(=O)c2cc3c(cc21)C[S+]([O-])C3` was run?
A: > 100 µM (inactive)

Q: And the GI50 (DMS-273)?
A: > 100 µM (inactive)

Q: What about the GI50 (LXFL 529) of the same compound?
A: > 100 µM (inactive)

Q: What about the GI50 (DLD-1) of the same compound?
A: > 100 µM (inactive)

Q: What about the GI50 (DMS-114) of the same compound?
A: > 100 µM (inactive)

Q: `C=C(C)[C@@H]1CC[C@]2(C(=O)O)CC[C@]3(C)[C@H](CCC4[C@@]5(C)CC[C@H](C(=O)/C=C/c6ccc(O)c(O)c6)C(C)(C)[C@@H]5CC[C@]43C)[C@@H]12` (stereo partly drawn) was tested. Which GI50 (BT-549) did it give?
A: 12 µM (inactive)

Q: For `CS(=O)(=O)OCCN1CCN(C(=O)c2cccc3c(Nc4ccc(S(=O)(=O)N=C(N)N)cc4)c4ccccc4nc23)CC1`, which GI50 (SNB-78) is on record?
A: > 100 µM (inactive)

Q: And the GI50 (XF498)?
A: > 100 µM (inactive)

Q: And the GI50 (DMS-273)?
A: > 100 µM (inactive)

Q: What about the GI50 (DLD-1) of the same compound?
A: > 100 µM (inactive)

Q: What about the GI50 (DMS-114) of the same compound?
A: > 100 µM (inactive)

Q: Which GI50 (HOP-18) does the source give for `O=C(CC1(O)C(=O)Nc2c(Cl)ccc(Cl)c21)c1ccc2ccccc2c1` (stereo not drawn) here?
A: 12.9 µM (inactive)

Q: What about the GI50 (SNB-78) of the same compound?
A: 14.5 µM (inactive)

Q: What about the GI50 (XF498) of the same compound?
A: 12.6 µM (inactive)

Q: What about the GI50 (DMS-273) of the same compound?
A: 5.58 µM (inactive)

Q: What about the GI50 (LXFL 529) of the same compound?
A: 10.2 µM (inactive)

Q: What about the GI50 (DLD-1) of the same compound?
A: 17.9 µM (inactive)

Q: And the GI50 (DMS-114)?
A: 5.78 µM (inactive)

Q: Which GI50 (BT-549) does the source give for `COc1ccc(Oc2nc3ccc(C(F)(F)F)cc3nc2-c2ccccc2)cc1` here?
A: 0.361 µM (active)

Q: Which results are given for `[O-][Cl+3]([O-])([O-])[O-].c1ccc(-c2csc3c4ccccc4c4ccccc4[n+]23)cc1`?
A: GI50 (HOP-18): 14.3 µM (inactive); GI50 (SNB-78): 2.08 µM (inactive); GI50 (XF498): 1.79 µM (inactive); GI50 (DMS-273): 1.6 µM (inactive); GI50 (LXFL 529): 1.84 µM (inactive); GI50 (DLD-1): 5.58 µM (inactive); GI50 (DMS-114): 0.394 µM (active)
